Test results published in patent US10357514B2, “Treatment of cancer using anti-CD19 Chimeric Antigen Receptor” (The Trustees of the University of Pennsylvania, priority 2014, dated 2019).
“Also recorded” adds a separate entry of the source. Read-outs that look alike come from different tables or passages of the source. Marks after values point to notes of the source that are not given here.

How the values were obtained:
B/Brisbane/60/2008 = assay: Hemagglutination inhibition titer and seroconversion after 2012 seasonal influenza vaccination; assay type: in vivo, human; conditions: for HI GMT ratio, B: GMT at week 4 post vaccination/GMT at baseline; for Percent of subjects with seroconversion, B: 4 weeks after vaccination
Source text: (§1) Results were expressed as fluorescence intensity.
(§2) The primary analysis of geometric mean titer ratios was done using a normal Bayesian regression model with non-informative priors. This model was fitted to each antibody titer on the log scale. The primary outcome in each model was the Day 84 measurement. The Day 63 measurement was included in the outcome vector. The model fitted using SAS 9.2 proc mixed with the prior statement. The covariance structure of the matrix was considered as unstructured (option type=UN). A flat prior was used. For the secondary analysis of seroconversion rates, logistic regression was used.
(§3) The ability of RAD001 to improve immune function in elderly volunteers was evaluated by measuring the serologic response to the 2012 seasonal influenza vaccine. The hemagglutination inhibition (HI) geometric mean titers (GMT) to each of the 3 influenza vaccine strains at baseline and 4 weeks after influenza vaccination are provided in Table 10. The primary analysis variable was the HI GMT ratio (4 weeks post vaccination/baseline). […] This endpoint was chosen because a 1.2-fold increase in the influenza GMT ratio induced by the MF-59 vaccine adjuvant was associated with a decrease in influenza illness (Iob, A et al. (2005) Epidemiol Infect 133:687-693).
(§4) Rates of seroconversion 4 weeks after influenza vaccination were also evaluated. Seroconversion was defined as the change from a negative pre-vaccination titer (i.e., HI titer <1:10) to post-vaccination HI titer ≥1:40 or at least 4-fold increase from a non-negative (≥1:10) pre-vaccination HI titer.

H3N2 A/Victoria/210/2009 = assay: as above; assay type: in vivo, human; conditions: for HI GMT ratio, A/H3N2: GMT at week 4 post vaccination/GMT at baseline; for Percent of subjects with seroconversion, H3N2: 4 weeks after vaccination
Source text: as §1, §2, §3, §4

[1] = system: H1N1 A/California/07/2009; assay: as above; assay type: in vivo, human; conditions: for HI GMT ratio, A/H1N1: GMT at week 4 post vaccination/GMT at baseline; for Percent of subjects with seroconversion, H1N1: 4 weeks after vaccination
Source text: as §1, §2, §3, §4

P70 S6K = assay: Inhibition of P70 S6K activity in HeLa cells in vitro; conditions: Homo sapiens, read-out: % P70 S6K inhibition
[2] = system: 3 influenza vaccine strains; assay: Primary endpoint: HI GMT ratio relative to placebo in at least 2 out of 3 influenza vaccine strains; assay type: in vivo, human; conditions: for primary endpoint (>=1.2-fold GMT increase relative to placebo in at least 2 of 3 strains): ITT population
Source text: as §2
The intention to treat population was defined as all subjects who received at least one full dose of study drug and who had no major protocol deviations impacting efficacy data. 199 out of the total of 218 subjects enrolled in the study were in the intention to treat population.
as §3
Elderly volunteers >=65 years of age were randomized to one of the 3 RAD001 treatment groups (50 subjects per arm) or placebo (20 subjects per arm). […] Response to influenza vaccination was assessed by measuring the geometric mean titers (GMTs) by hemagglutination inhibition assay to the 3 influenza strains (H1N1, H3N2 and B influenza subtypes) in the influenza vaccine 4 weeks after vaccination. […] Antibody titers to 7 of the serotypes were measured in our subjects.

[3] = Energy and exercise questionnaires one year after dosing; assay type: in vivo, human; conditions: 0.5 mg daily cohort
[4] = system: PD-1-positive CD4 and CD8 and PD-1-negative CD4 T cells; assay: FACS analysis of PD-1 on T cells in PBMC samples of subjects given RAD001; assay type: in vivo, human
pneumococcal serotypes = assay: Antibody titers after pneumococcal vaccination (Pneumovax 23); assay type: in vivo, human; conditions: 7 serotypes measured; all 3 RAD cohorts
Protocol: Elderly volunteers >=65 years of age were randomized to one of the 3 RAD001 treatment groups (50 subjects per arm) or placebo (20 subjects per arm). Subjects were treated with study drug for 6 weeks, given a 2 week break, and then received influenza (Aggrippal, Novartis) and pneumoccal (Pneumovax 23, Merck), vaccinations. Response to influenza vaccination was assessed by measuring the geometric mean titers (GMTs) by hemagglutination inhibition assay to the 3 influenza strains (H1N1, H3N2 and B influenza subtypes) in the influenza vaccine 4 weeks after vaccination. The primary endpoints of the study were (1) safety and tolerability and (2) a 1.2 fold increase in influenza titers as compared to placebo in 2/3 of the influenza vaccine strains 4 weeks after vaccination. This endpoint was chosen because a 1.2 fold increase in influenza titers is associated with a decrease in influenza illness post vaccination, and therefore is clinically relevant. […] The pneumococcal vaccine contains antigens from 23 pneumococcal serotypes. Antibody titers to 7 of the serotypes were measured in our subjects.

[5] = cited from earlier work
[6] = system: A/H3N2 strain A/Victoria/361/11; assay: HI titer and seroconversion to heterologous influenza strain; assay type: in vivo, human; conditions: for Percentage of subjects who seroconvert to heterologous strain A/H3N2 A/Victoria/361/11: 4 weeks after seasonal influenza vaccination
[7] = system: PD-1 positive CD4 and CD8 T cells; assay: Immunophenotyping of PBMC by flow cytometry; assay type: in vivo, human
[8] = Baseline (2 weeks prior to influenza vaccination), 0.5 mg daily, N = 50
[9] = Baseline (2 weeks prior to influenza vaccination), 5 mg weekly, N = 49
[10] = Baseline (2 weeks prior to influenza vaccination), 20 mg weekly, N = 49
[11] = Intention to Treat Population, 0.5 mg, N = 48
[12] = Intention to Treat Population, 5 mg, N = 49
[13] = Intention to Treat Population, 20 mg, N = 48
[14] = Subjects with Baseline Titers <=40, 0.5 mg
[15] = Subjects with Baseline Titers <=40, 5 mg
[16] = Subjects with Baseline Titers <=40, 20 mg
[17] = Week 4 after influenza vaccination, 0.5 mg daily, N = 50
[18] = Week 4 after influenza vaccination, 5 mg weekly, N = 49
[19] = Week 4 after influenza vaccination, 20 mg weekly, N = 49
[20] = week 6, pooled cohort, adjusted for baseline PD-1
[21] = week 12, pooled cohort, adjusted for baseline PD-1
[22] = week 12, 0.5 mg/Day, 5 mg/Week and 20 mg/Week cohorts

CO[C@H]1C[C@@H]2CC[C@@H](C)[C@@](O)(O2)C(=O)C(=O)N2CCCC[C@H]2C(=O)O[C@H]([C@H](C)C[C@@H]2CC[C@@H](OCCO)[C@H](OC)C2)CC(=O)[C@H](C)/C=C(\C)[C@@H](O)[C@@H](OC)C(=O)[C@H](C)C[C@H](C)/C=C/C=C/C=C/1C [RAD001, (1R,9S,12S,15R,16E,18R,19R,21R,23S,24E,26E,28E,30S,32S,35R)-1,18-dihydroxy-12-{(1R)-2-[(1S,3R,4R)-4-(2-hydroxyethoxy)-3-methoxycyclohexyl]-1-methylethyl}-19,30-dimethoxy-15,17,21,23,29,35-hexamethyl-11,36-dioxa-4-aza-tricyclo[30.3.1.04,9]hexatriaconta-16,24,26,28-tetraene-2,3,10,14,20-pentaone]
HI GMT, B (B/Brisbane/60/2008; [8]): 44.2
HI GMT, B (B/Brisbane/60/2008; [9]): 64.8
HI GMT, B (B/Brisbane/60/2008; [10]): 58.0
HI GMT ratio, B (B/Brisbane/60/2008; 0.5 mg daily, N = 50): 2.5
HI GMT ratio, B (B/Brisbane/60/2008; 5 mg weekly, N = 49): 2.2
HI GMT ratio, B (B/Brisbane/60/2008; 20 mg weekly, N = 49): 2.1
Percent of subjects with seroconversion, B (B/Brisbane/60/2008; [11]): 27%
Percent of subjects with seroconversion, B (B/Brisbane/60/2008; [12]): 22%
Percent of subjects with seroconversion, B (B/Brisbane/60/2008; [13]): 19%
Percent of subjects with seroconversion, B (B/Brisbane/60/2008; [14]): 40* Percent
Percent of subjects with seroconversion, B (B/Brisbane/60/2008; [15]): 33%
Percent of subjects with seroconversion, B (B/Brisbane/60/2008; [16]): 28%
HI GMT, B (B/Brisbane/60/2008; [17]): 98.4
HI GMT, B (B/Brisbane/60/2008; [18]): 117.3
HI GMT, B (B/Brisbane/60/2008; [19]): 99.2
HI GMT, A/H3N2 (H3N2 A/Victoria/210/2009; [8]): 106.8
HI GMT, A/H3N2 (H3N2 A/Victoria/210/2009; [9]): 126.04
HI GMT, A/H3N2 (H3N2 A/Victoria/210/2009; [10]): 137.1
HI GMT ratio, A/H3N2 (H3N2 A/Victoria/210/2009; 0.5 mg daily, N = 50): 2.1
HI GMT ratio, A/H3N2 (H3N2 A/Victoria/210/2009; 5 mg weekly, N = 49): 2.0
HI GMT ratio, A/H3N2 (H3N2 A/Victoria/210/2009; 20 mg weekly, N = 49): 2.1
Percent of subjects with seroconversion, H3N2 (H3N2 A/Victoria/210/2009; [11]): 27%
Percent of subjects with seroconversion, H3N2 (H3N2 A/Victoria/210/2009; [12]): 24%
Percent of subjects with seroconversion, H3N2 (H3N2 A/Victoria/210/2009; [13]): 25%
Percent of subjects with seroconversion, H3N2 (H3N2 A/Victoria/210/2009; [14]): 64%
Percent of subjects with seroconversion, H3N2 (H3N2 A/Victoria/210/2009; [15]): 53%
Percent of subjects with seroconversion, H3N2 (H3N2 A/Victoria/210/2009; [16]): 71%
HI GMT, A/H3N2 (H3N2 A/Victoria/210/2009; [17]): 194.4
HI GMT, A/H3N2 (H3N2 A/Victoria/210/2009; [18]): 223.0
HI GMT, A/H3N2 (H3N2 A/Victoria/210/2009; [19]): 223.0
HI GMT, A/H1N1 [1, 8]: 102.8
HI GMT, A/H1N1 [1, 9]: 84.2
HI GMT, A/H1N1 [1, 10]: 90.1
HI GMT ratio, A/H1N1 ([1]; 0.5 mg daily, N = 50): 2.6
HI GMT ratio, A/H1N1 ([1]; 5 mg weekly, N = 49): 2.5
HI GMT ratio, A/H1N1 ([1]; 20 mg weekly, N = 49): 1.8
Percent of subjects with seroconversion, H1N1 [1, 11]: 27%
Percent of subjects with seroconversion, H1N1 [1, 12]: 27%
Percent of subjects with seroconversion, H1N1 [1, 13]: 17%
Percent of subjects with seroconversion, H1N1 [1, 14]: 42%
Percent of subjects with seroconversion, H1N1 [1, 15]: 45%
Percent of subjects with seroconversion, H1N1 [1, 16]: 36%
HI GMT, A/H1N1 [1, 17]: 190.2
HI GMT, A/H1N1 [1, 18]: 198.73
HI GMT, A/H1N1 [1, 19]: 129.7
inhibition at 6 pM (P70 S6K): 0%
inhibition at 32 pM (P70 S6K): 18%
inhibition at 0.0008 µM (P70 S6K): 62%
inhibition at 0.004 µM (P70 S6K): 90%
inhibition at 0.02 µM (P70 S6K): 95%
primary endpoint (>=1.2-fold GMT increase relative to placebo in at least 2 of 3 strains) ([2]; 0.5 mg daily or 5 mg weekly): met the GMT primary endpoint
primary endpoint (>=1.2-fold GMT increase relative to placebo in at least 2 of 3 strains) ([2]; 20 mg weekly): not higher dose (20 mg weekly) cohort met the primary endpoint; also recorded: unlike the 20 mg weekly dose, met the GMT primary endpoint
increase in titers in subgroup versus ITT population ([2]; subjects with low baseline influenza titers (<=1:40)): greater RAD001-associated increase in titers
self-reported energy and exercise ability compared to placebo [3]: increased energy and exercise ability
decrease in PD-1+ CD4 T cells compared to placebo [4, 20]: 30.2%
decrease in PD-1-positive CD8 T cells compared to placebo [4, 20]: 37.4%
decrease in PD-1-positive CD4 T cells compared to placebo [4, 21]: 32.7%
decrease in PD-1-positive CD8 T cells compared to placebo [4, 21]: 41.4%
decrease in PD-1-positive CD4 T cells as compared to placebo [4, 22]: −37.1-−28.5%
decrease in PD-1-positive CD8 T cells as compared to placebo [4, 22]: −43.3-−38.5%
increase in PD-1-negative CD4 T cells as compared to placebo [4, 22]: 3.0-4.9%
pneumococcal antibody titers compared to placebo (pneumococcal serotypes): 6/7 serotypes were increased
average RAD001 trough level (5 mg weekly, lower limit of quantification 0.3 ng/ml): below detection limits
trough level of study dosing regimens lower than approved transplant and oncology regimens (dosing regimens used in the immunization study): 3-20 fold
trough level of RAD001 ([5]; 10 mg daily oncology dosing regimen): approximately 20 ng/ml
trough level of RAD001 ([5]; 0.75-1.5 mg bid transplant dosing regimen): approximately 3 ng/ml
Percentage of subjects who seroconvert to heterologous strain A/H3N2 A/Victoria/361/11 ([6]; 0.5 mg daily): 38%
Percentage of subjects who seroconvert to heterologous strain A/H3N2 A/Victoria/361/11 ([6]; 5 mg weekly): 39%*
Percentage of subjects who seroconvert to heterologous strain A/H3N2 A/Victoria/361/11 ([6]; 20 mg weekly): 40%*
increase in HI GMT ratio for heterologous strain versus placebo ([6]; RAD001 cohorts): higher
H3N2 heterologous strain seroconversion rate ([6]; pooled RAD001 cohorts, versus 20% placebo, p=0.007): 39%
percentage of PD-1 negative CD4 T cells compared to placebo ([7]; RAD001 cohorts): increased
percentage of CD4 PD-1 positive T cells ([7]; week 6 and 12, all RAD001 cohorts): decreased from baseline
percentage of CD8 PD-1 positive cells ([7]; week 6 and 12, two lower dose RAD001 cohorts): decreased from baseline
